The source of these data is patent US20230159511A1, “TETRAHYDROISOQUINOLINE COMPOUNDS AS NRF2 ACTIVATORS” (C4X Discovery Limited, priority 2020, published 2023).

The target in assay [1] is T1, human KEAP1 (N-term, residues 321-609) (Homo sapiens, UniProt Q14145).
T1 construct: human KEAP1 (N-term, residues 321-609)
Kind of assay: KEAP1 Kelch Fluorescence Polarization (FP) Assay. Conditions: inhibition of Kelch domain-NRF2 interaction; 2 nM FITC-labelled NRF2 peptide, 25 nM KEAP1, 1 h room temperature; compounds below 10 nM cannot be differentiated. Type of assay: binding. The method, boiled down:
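Compounds in 12-point curves (top 10 μM) displaced 2 nM FITC-labelled NRF2 peptide from 25 nM KEAP1 residues 321-609 over 1 h at room temperature. Polarization read at 470/530 nm, window set by 50 μM unlabelled peptide; four-parameter fit gave IC50, floor 10 nM.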

Assay [2] deals with NRF2 mediated gene NAD(P)H:quinone acceptor oxidoreductase 1 (NQO1) in BEAS-2B cells. Kind of assay: Beas2B NQO1 mRNA Cell Based Assay. The arrangement: species or system human. Conditions: BEAS-2B cells, compound for 24 h, increase in NQO1 mRNA compared to vehicle (0.1% DMSO) control, read-out: EC50. The method, boiled down: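 BEAS-2B cells treated 24 h with compound; NQO1 mRNA measured by one-step TaqMan RT-PCR on crude lysates, normalised to beta actin by ΔΔCT. Fold increase over 0.1% DMSO vehicle; EC50 from four-parameter logistic fit.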

Like-named read-outs stand apart in the source and are kept apart here.

T1 sequence (Q14145 321-609): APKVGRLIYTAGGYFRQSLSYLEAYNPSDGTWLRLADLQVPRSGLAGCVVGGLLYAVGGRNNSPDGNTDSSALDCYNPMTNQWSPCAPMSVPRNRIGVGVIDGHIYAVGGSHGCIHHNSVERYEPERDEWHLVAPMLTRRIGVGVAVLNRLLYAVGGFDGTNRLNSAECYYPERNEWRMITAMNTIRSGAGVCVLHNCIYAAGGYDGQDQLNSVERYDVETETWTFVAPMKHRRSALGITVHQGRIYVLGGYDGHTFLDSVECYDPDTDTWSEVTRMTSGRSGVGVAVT

For the compound `CNC(=O)[C@@]1(C)CCC[C@H]1C(=O)N1CCc2c(Cl)ccc(OCc3nnn(C)c3C(F)F)c2[C@H]1CN1CC2(CC2)CC1=O` [Example 94, (1S,2R)-2-((S)-5-chloro-8-((5-(difluoromethyl)-1-methyl-1H-1,2,3-triazol-4-yl)methoxy)-1-((6-oxo-5-azaspiro[2.4]heptan-5-yl)methyl)-1,2,3,4-tetrahydroisoquinoline-2-carbonyl)-N,1-dimethylcyclopentane-1-carboxamide], the IC50 in assay [1] is 13 nM. For the same compound, in assay [2] (Homo sapiens), the half-maximal effective concentration (EC50) stood at 148 nM.
As to `CNC(=O)[C@@]1(C)CCCC[C@H]1C(=O)N1CCc2c(Cl)ccc(OCc3nnn(C)c3C(F)(F)F)c2[C@H]1CN1CC2(CC2)CC1=O` [Example 97, (1S,2R)-2-((S)-5-chloro-8-((1-methyl-5-(trifluoromethyl)-1H-1,2,3-triazol-4-yl)methoxy)-1-((6-oxo-5-azaspiro[2.4]heptan-5-yl)methyl)-1,2,3,4-tetrahydroisoquinoline-2-carbonyl)-N,1-dimethylcyclohexane-1-carboxamide], inhibition in assay [1] was half-maximal at 8.9 nM (IC50). For the same compound, the EC50 in assay [2] (Homo sapiens) worked out at 114 nM.
For the compound `CNC(=O)[C@]1(C)CCCC[C@@H]1C(=O)N1CCc2c(Cl)ccc(OCc3nnn(C)c3C(F)F)c2[C@@H]1CN1CC2(CC2)CC1=O` [Example 98, (1R,2S)-2-((R)-5-chloro-8-((5-(difluoromethyl)-1-methyl-1 H-1,2,3-triazol-4-yl)methoxy)-1-((6-oxo-5-azaspiro[2.4]heptan-5-yl)methyl)-1,2,3,4-tetrahydroisopuinoline-2-carbonyl)-N,1-dimethylcyclohexane-1-carboxamide], it took 6 nM to reach half-maximal inhibition in assay [1] (IC50). In assay [2], the EC50 turned out to be 41 nM.
`CNC(=O)[C@@]1(C)CCCC[C@H]1C(=O)N1CCc2c(Cl)ccc(OCc3nnn(C)c3C3CC3)c2[C@H]1CN1CCCC1=O` [Example 99, (1S,2R)-2-((S)-5-chloro-8-((5-cyclopropyl-1-methyl-1H-1,2,3-triazol-4-yl)methoxy)-1-((2-oxopyrrolidin-1-yl)methyl)-1,2,3,4-tetrahydroisoquinoline-2-carbonyl)-N,1-dimethylcyclohexane-1-carboxamide]: half-maximal inhibition in assay [1] (IC50) required 7.4 nM. Further, the EC50 in assay [2] (Homo sapiens) was 109 nM.
In turn, `Cn1nnc(COc2ccc(Cl)c3c2[C@@H](CN2CC4(CC4)CC2=O)N(C(=O)[C@@H]2CCCC[C@]2(C)C(N)=O)CC3)c1C(F)F` [Example 100, (1S,2R)-2-((S)-5-chloro-8-((5-(difluoromethyl)-1-methyl-1H-1,2,3-triazol-4-yl)methoxy)-1-((6-oxo-5-azaspiro[2.4]heptan-5-yl)methyl)-1,2,3,4-tetrahydroisoquinoline-2-carbonyl)-1-methylcyclohexane-1-carboxamide] showed an IC50 in assay [1] of 6.4 nM. Further, the EC50 in assay [2] (Homo sapiens) amounted to 26 nM.
For `CNC(=O)[C@@]1(C)CCCC[C@H]1C(=O)N1CCc2c(Cl)ccc(OCc3nnn(C)c3C)c2[C@H]1CN1CC2(CC2)CC1=O` [Example 101, (1S,2R)-2-((S)-5-chloro-8-((1,5-dimethyl-1H-1,2,3-triazol-4-yl)methoxy)-1-((6-oxo-5-azaspiro[2.4]heptan-5-yl)methyl)-1,2,3,4-tetrahydroisoquinoline-2-carbonyl)-N,1-dimethylcyclohexane-1-carboxamide], in that order: 6.1 nM and 18 nM.
In assay [1], `CNC(=O)[C@@]1(C)CCCC[C@H]1C(=O)N1CCc2c(Cl)ccc(OCc3cn(C)nn3)c2[C@H]1CN1CC2(CC2)CC1=O` [Example 102, (1S,2R)-2-((S)-5-chloro-8-((1-methyl-1H-1,2,3-triazol-4-yl)methoxy)-1-((6-oxo-5-azaspiro[2.4]heptan-5-yl)methyl)-1,2,3,4-tetrahydroisoquinoline-2-carbonyl)-N,1-dimethylcyclohexane-1-carboxamide] had a concentration for half-maximal inhibition (IC50) of 12 nM. The half-maximal effective concentration (EC50) in assay [2] (Homo sapiens) was determined as 59 nM.
Compound `CNC(=O)[C@@]1(C)CCCC[C@H]1C(=O)N1CCc2c(Cl)ccc(OCc3nnn(C)c3C3CC3)c2[C@H]1CN1CC2(CC2)CC1=O` [Example 103, (1S,2R)-2-((S)-5-chloro-8-((5-cyclopropyl-1-methyl-1H-1,2,3-triazol-4-yl)methoxy)-1-((6-oxo-5-azaspiro[2.4]heptan-5-yl)methyl)-1,2,3,4-tetrahydroisoquinoline-2-carbonyl)-N,1-dimethylcyclohexane-1-carboxamide] yielded an IC50 in assay [1] of 7.1 nM. For the same compound, the half-maximal effective concentration (EC50) in assay [2] (Homo sapiens) turned out to be 57 nM.
In assay [1], `CNC(=O)[C@@]1(C)CCCC[C@H]1C(=O)N1CCc2c(Cl)ccc(OCc3cn(C)nn3)c2[C@H]1CN1C[C@H](C)CC1=O` [Example 104, (1S,2R)-2-((S)-5-chloro-8-((1-methyl-1H-1,2,3-triazol-4-yl)methoxy)-1-(((R)-4-methyl-2-oxopyrrolidin-1-yl)methyl)-1,2,3,4-tetrahydroisoquinoline-2-carbonyl)-N,1-dimethylcyclohexane-1-carboxamide] displayed an IC50 of 11 nM. Also, the EC50 in assay [2] (Homo sapiens) is 784 nM.
Take `CNC(=O)[C@@]1(C)CCCC[C@H]1C(=O)N1CCc2c(Cl)ccc(OCc3nnn(C)c3COC)c2[C@H]1CN1C[C@H](C)CC1=O` [Example 105, (1S,2R)-2-((S)-5-chloro-8-((5-(methoxymethyl)-1-methyl-1H-1,2,3-triazol-4-yl)methoxy)-1-(((R)-4-methyl-2-oxopyrrolidin-1-yl)methyl)-1,2,3,4-tetrahydroisoquinoline-2-carbonyl)-N,1-dimethylcyclohexane-1-carboxamide]: the half-inhibitory concentration (IC50) in assay [1] is 17 nM. The EC50 in assay [2] (Homo sapiens) was found to be 790 nM.
For `CNC(=O)[C@@]1(C)CCCC[C@H]1C(=O)N1CCc2c(Cl)cc(F)c(OCc3nnn(C)c3C(F)F)c2[C@H]1CN1CC2(CC2)CC1=O` [Example 106, (1S,2R)-2-((S)-5-chloro-8-((5-(difluoromethyl)-1-methyl-1H-1,2,3-triazol-4-yl)methoxy)-7-fluoro-1-((6-oxo-5-azaspiro[2.4]heptan-5-yl)methyl)-1,2,3,4-tetrahydroisoquinoline-2-carbonyl)-N,1-dimethylcyclohexane-1-carboxamide], in assay [1], 6.7 nM corresponded to half-maximal inhibition (IC50). Also, the concentration giving a half-maximal response (EC50) in assay [2] (Homo sapiens) was 25 nM.
Take `Cn1nnc(COc2c(F)cc(Cl)c3c2[C@@H](CN2CC4(CC4)CC2=O)N(C(=O)[C@@H]2CCCC[C@]2(C)C(N)=O)CC3)c1C(F)F` [Example 107, (1S,2R)-2-((S)-5-chloro-8-((5-(difluoromethyl)-1-methyl-1H-1,2,3-triazol-4-yl)methoxy)-7-fluoro-1-((6-oxo-5-azaspiro[2.4]heptan-5-yl)methyl)-1,2,3,4-tetrahydroisoquinoline-2-carbonyl)-1-methylcyclohexane-1-carboxamide]: the IC50 in assay [1] was 6.2 nM. In addition, in assay [2] (Homo sapiens), the concentration for a half-maximal effect (EC50) turned out to be 37 nM.
Take `CNC(=O)[C@@]1(C)CCCC[C@H]1C(=O)N1CCc2c(Cl)cc(F)c(OCc3nnn(C)c3C(F)F)c2[C@H]1CN1CCOCC1=O` [Example 108, (1S,2R)-2-((S)-5-chloro-8-((5-(difluoromethyl)-1-methyl-1H-1,2,3-triazol-4-yl)methoxy)-7-fluoro-1-((3-oxomorpholino)methyl)-1,2,3,4-tetrahydroisoquinoline-2-carbonyl)-N,1-dimethylcyclohexane-1-carboxamide]: in assay [1], the IC50 came out at 7.3 nM. Further, the concentration giving a half-maximal response (EC50) in assay [2] (Homo sapiens) was 654 nM.

As a reminder, the IC50 is the point on the concentration scale where inhibition reaches its midpoint. As a reminder, the EC50 is the concentration at which the effect is half-maximal.
